Laboratory results taken from US20240287046A1, “COMPOUNDS AND RADIOLIGANDS FOR TARGETING NEUROTENSIN RECEPTOR AND USES THEREOF” (Full-Life Technologies HK Limited, priority 2022, published 2024).
One block for each compound: values may come before it.

Assays:
[1] = tested on: ASPC-1 tumor-bearing mice; experiment: Biodistribution of radionuclide labeled complexes in ASPC-1 tumor-bearing mice; type: in vivo, BALB/c nude mice
In short: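 Radiolabeled compound (~30-50 μCi, ~1.11-1.85 MBq, specific activity 30-250 μCi/nmol) was injected i.v. via tail vein into nude mice carrying 0.05-0.50 g subcutaneous NTSR-1-positive human tumors. At set times, tissues were collected, weighed and γ-counted; % ID and % ID/g were calculated.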

[2] = tested on: HT-29 tumor-bearing mice; experiment: Biodistribution of radionuclide labeled complexes in HT-29 tumor-bearing mice; type: in vivo, BALB/c nude mice
Experimental: The BALB/c nude mice (Charles River, Beijing) were utilized to establish the xenografted model for biodistribution study. All animal care and experimental procedure were performed by following the animal protocols approved by the ethics committee of China Institute of Radiation Protection.
Briefly, each mouse was inoculated with approximately 4×10^6 ASPC-1 cells (human pancreatic cancer cell line) or HT-29 cells (human colorectal adenocarcinoma cell line) expressing human NTSR-1 by subcutaneous injection at rear flank. After inoculation, the xenografted tumors were allowed to grow for ˜2-4 weeks till the tumor weight reached to about 0.05 to 0.50 g (0.20 g in average).
Biodistribution studies were performed by administrating the radionuclide labeled test compound at a dose of ˜30-50 μCi (100 μL in 0.9% NaCl, ˜1.11-1.85 MBq, with specific activity 30-250 μCi/nmol) to each animal through tail vein injection.
At different time points after the administration, the mice treated with each compound were euthanized. The tissues and organs of the animals in each group were collected, excised, weighed, and analyzed in a PerkinElmer 2480 WIZARD2γ counter, and the percent injected dose (% ID) and % ID/g of each organ or tissue were calculated.

[3] = tested on: ASPC-1 tumor-bearing mice; experiment: SPECT/CT imaging of ^177Lu-labeled complexes; type: in vivo; conditions: over 72 hours
Experimental: ASPC-1 tumor-bearing mice were IV-injected with about 120 μCi of ^177Lu-labeled complexes, then anesthetized under 2% isoflurane/oxygen gas and placed on the scanner. SPECT/CT images were acquired in three bed positions for 30 min using a MILabs SPECT scanner. Whole-body SPECT images were acquired at 1 h, 4 h, 24 and 72 h after injecting the radiotracers.

[4] = tested on: ASPC-1 tumor; experiment: In vivo efficacy of ^225Ac therapy; conditions: ASPC-1 tumor-bearing mice
Experimental: In vivo efficacy of the ^177Lu labeled complexes and ^225Ac labeled complexes of the present application was evaluated in ASPC-1 tumor-bearing mice. For ^177Lu therapy study, animals in each group were dosed with vehicle or 0.6 mCi activity of the radiolabeled complexes at Day 1 and Day 5, respectively. For ^225Ac therapy studies, animals in each group were administered with a single dose of vehicle, 18, 37 or 74 KBq activity of the radiolabeled complexes, respectively.
The tumor volume (V) was determined according to the equation (V=[…]×L×W×H) at different time points, where L is the longest axis and W is the perpendicular axis to L, and H is the perpendicular axis to L and W plane. Endpoint (sacrifice) criteria were defined as either when the tumor volume exceeded 1.5 cm^3, or 20% body weight loss.

tumor AUC over 72 hours compared to ^177Lu—C2 [1]: significantly higher tumor AUC
% ID/g (4 h) Blood ([1]; Blood, 4 h): 15.51 ± 0.77 % ID/g
% ID/g (24 h) Blood ([1]; Blood, 24 h): 0.09 ± 0.01 % ID/g
% ID/g (72 h) Blood ([1]; Blood, 72 h): 0.02 ± 0 % ID/g
% ID/g (4 h) Femur ([1]; Femur, 4 h): 2.21 ± 0.63 % ID/g
% ID/g (24 h) Femur ([1]; Femur, 24 h): 0.38 ± 0.23 % ID/g
% ID/g (72 h) Femur ([1]; Femur, 72 h): 0.17 ± 0.09 % ID/g
% ID/g (4 h) Heart ([1]; Heart, 4 h): 2.82 ± 1.88 % ID/g
% ID/g (24 h) Heart ([1]; Heart, 24 h): 2.18 ± 2.71 % ID/g
% ID/g (72 h) Heart ([1]; Heart, 72 h): 0.15 ± 0.13 % ID/g
% ID/g (4 h) Intestine ([1]; Intestine, 4 h): 1.81 ± 0.87 % ID/g
% ID/g (24 h) Intestine ([1]; Intestine, 24 h): 0.82 ± 0.31 % ID/g
% ID/g (72 h) Intestine ([1]; Intestine, 72 h): 0.51 ± 0.04 % ID/g
% ID/g (4 h) Kidney ([1]; Kidney, 4 h): 4.57 ± 2.28 % ID/g
% ID/g (24 h) Kidney ([1]; Kidney, 24 h): 1.37 ± 0.17 % ID/g
% ID/g (72 h) Kidney ([1]; Kidney, 72 h): 1.29 ± 0.49 % ID/g
% ID/g (4 h) Liver ([1]; Liver, 4 h): 3.87 ± 2.36 % ID/g
% ID/g (24 h) Liver ([1]; Liver, 24 h): 1.27 ± 0.29 % ID/g
% ID/g (72 h) Liver ([1]; Liver, 72 h): 0.96 ± 0.07 % ID/g
% ID/g (4 h) Lung ([1]; Lung, 4 h): 1.841 ± 0.07 % ID/g
% ID/g (24 h) Lung ([1]; Lung, 24 h): 0.33 ± 0.06 % ID/g
% ID/g (72 h) Lung ([1]; Lung, 72 h): 0.23 ± 0.07 % ID/g
% ID/g (4 h) Muscle ([1]; Muscle, 4 h): 1.29 ± 0.37 % ID/g
% ID/g (24 h) Muscle ([1]; Muscle, 24 h): 0.17 ± 0.08 % ID/g
% ID/g (72 h) Muscle ([1]; Muscle, 72 h): 0.05 ± 0.01 % ID/g
% ID/g (4 h) Pancreas ([1]; Pancreas, 4 h): 1.57 ± 0.5 % ID/g
% ID/g (24 h) Pancreas ([1]; Pancreas, 24 h): 0.3 ± 0.24 % ID/g
% ID/g (72 h) Pancreas ([1]; Pancreas, 72 h): 0.1 ± 0.04 % ID/g
% ID/g (4 h) Spleen ([1]; Spleen, 4 h): 2.39 ± 1.4 % ID/g
% ID/g (24 h) Spleen ([1]; Spleen, 24 h): 0.63 ± 0.05 % ID/g
% ID/g (72 h) Spleen ([1]; Spleen, 72 h): 0.34 ± 0.04 % ID/g
% ID/g (4 h) Stomach ([1]; Stomach, 4 h): 3.52 ± 0.4 % ID/g
% ID/g (24 h) Stomach ([1]; Stomach, 24 h): 0.28 ± 0.2 % ID/g
% ID/g (72 h) Stomach ([1]; Stomach, 72 h): 0.15 ± 0.05 % ID/g
% ID/g (4 h) Tumor ([1]; Tumor, 4 h): 27.56 ± 12.51 % ID/g
% ID/g (24 h) Tumor ([1]; Tumor, 24 h): 36.67 ± 18.25 % ID/g
% ID/g (72 h) Tumor ([1]; Tumor, 72 h): 12.83 ± 4.23 % ID/g
ratio of tumor AUC verse normal organ AUC ([1]; compared to ^177Lu—C2): significantly improved
% ID/g (1 h) Blood ([2]; Blood, 1 h): 20.4 ± 1.06 % ID/g
% ID/g (4 h) Blood ([2]; Blood, 4 h): 9.07 ± 1.42 % ID/g
% ID/g (24 h) Blood ([2]; Blood, 24 h): 0.07 ± 0.02 % ID/g
% ID/g (72 h) Blood ([2]; Blood, 72 h): 0.09 ± 0.07 % ID/g
% ID/g (120 h) Blood ([2]; Blood, 120 h): 0.01 ± 0 % ID/g
% ID/g (1 h) Femur ([2]; Femur, 1 h): 1.84 ± 1.19 % ID/g
% ID/g (4 h) Femur ([2]; Femur, 4 h): 0.99 ± 0.18 % ID/g
% ID/g (24 h) Femur ([2]; Femur, 24 h): 0.29 ± 0.1 % ID/g
% ID/g (72 h) Femur ([2]; Femur, 72 h): 0.73 ± 0.82 % ID/g
% ID/g (120 h) Femur ([2]; Femur, 120 h): 0.13 ± 0.05 % ID/g
% ID/g (1 h) Heart ([2]; Heart, 1 h): 5.76 ± 1.66 % ID/g
% ID/g (4 h) Heart ([2]; Heart, 4 h): 3.15 ± 0.43 % ID/g
% ID/g (24 h) Heart ([2]; Heart, 24 h): 0.31 ± 0.07 % ID/g
% ID/g (72 h) Heart ([2]; Heart, 72 h): 0.89 ± 0.56 % ID/g
% ID/g (120 h) Heart ([2]; Heart, 120 h): 0.13 ± 0.02 % ID/g
% ID/g (1 h) Intestine ([2]; Intestine, 1 h): 2.59 ± 0.76 % ID/g
% ID/g (4 h) Intestine ([2]; Intestine, 4 h): 1.7 ± 0.53 % ID/g
% ID/g (24 h) Intestine ([2]; Intestine, 24 h): 0.7 ± 0.39 % ID/g
% ID/g (72 h) Intestine ([2]; Intestine, 72 h): 1.33 ± 0.88 % ID/g
% ID/g (120 h) Intestine ([2]; Intestine, 120 h): 0.17 ± 0.06 % ID/g
% ID/g (1 h) Kidney ([2]; Kidney, 1 h): 4.34 ± 2.82 % ID/g
% ID/g (4 h) Kidney ([2]; Kidney, 4 h): 3.22 ± 1.54 % ID/g
% ID/g (24 h) Kidney ([2]; Kidney, 24 h): 2.61 ± 0.72 % ID/g
% ID/g (72 h) Kidney ([2]; Kidney, 72 h): 3.55 ± 2.21 % ID/g
% ID/g (120 h) Kidney ([2]; Kidney, 120 h): 0.81 ± 0.23 % ID/g
% ID/g (1 h) Liver ([2]; Liver, 1 h): 5.26 ± 1.02 % ID/g
% ID/g (4 h) Liver ([2]; Liver, 4 h): 4.41 ± 1.88 % ID/g
% ID/g (24 h) Liver ([2]; Liver, 24 h): 2.21 ± 0.36 % ID/g
% ID/g (72 h) Liver ([2]; Liver, 72 h): 4.44 ± 3.4 % ID/g
% ID/g (120 h) Liver ([2]; Liver, 120 h): 0.55 ± 0.3 % ID/g
% ID/g (1 h) Lung ([2]; Lung, 1 h): 9.85 ± 2.58 % ID/g
% ID/g (4 h) Lung ([2]; Lung, 4 h): 3.88 ± 1.04 % ID/g
% ID/g (24 h) Lung ([2]; Lung, 24 h): 0.62 ± 0.32 % ID/g
% ID/g (72 h) Lung ([2]; Lung, 72 h): 0.5 ± 0.19 % ID/g
% ID/g (120 h) Lung ([2]; Lung, 120 h): 0.12 ± 0.1 % ID/g
% ID/g (1 h) Muscle ([2]; Muscle, 1 h): 1.07 ± 0.14 % ID/g
% ID/g (4 h) Muscle ([2]; Muscle, 4 h): 0.66 ± 0.21 % ID/g
% ID/g (24 h) Muscle ([2]; Muscle, 24 h): 0.12 ± 0.04 % ID/g
% ID/g (72 h) Muscle ([2]; Muscle, 72 h): 0.37 ± 0.34 % ID/g
% ID/g (120 h) Muscle ([2]; Muscle, 120 h): 0.06 ± 0.02 % ID/g
% ID/g (1 h) Pancreas ([2]; Pancreas, 1 h): 1.18 ± 0.61 % ID/g
% ID/g (4 h) Pancreas ([2]; Pancreas, 4 h): 1.01 ± 0.71 % ID/g
% ID/g (24 h) Pancreas ([2]; Pancreas, 24 h): 0.15 ± 0.06 % ID/g
% ID/g (72 h) Pancreas ([2]; Pancreas, 72 h): 0.51 ± 0.5 % ID/g
% ID/g (120 h) Pancreas ([2]; Pancreas, 120 h): 0.05 ± 0.02 % ID/g
% ID/g (1 h) Spleen ([2]; Spleen, 1 h): 1.76 ± 0.41 % ID/g
% ID/g (4 h) Spleen ([2]; Spleen, 4 h): 1.22 ± 0.16 % ID/g
% ID/g (24 h) Spleen ([2]; Spleen, 24 h): 0.43 ± 0.09 % ID/g
% ID/g (72 h) Spleen ([2]; Spleen, 72 h): 1.61 ± 1.35 % ID/g
% ID/g (120 h) Spleen ([2]; Spleen, 120 h): 0.8 ± 0.32 % ID/g
% ID/g (1 h) Stomach ([2]; Stomach, 1 h): 1.29 ± 0.31 % ID/g
% ID/g (4 h) Stomach ([2]; Stomach, 4 h): 1.35 ± 0.68 % ID/g
% ID/g (24 h) Stomach ([2]; Stomach, 24 h): 0.29 ± 0.11 % ID/g
% ID/g (72 h) Stomach ([2]; Stomach, 72 h): 0.54 ± 0.53 % ID/g
% ID/g (120 h) Stomach ([2]; Stomach, 120 h): 0.07 ± 0.01 % ID/g
% ID/g (1 h) Tumor ([2]; Tumor, 1 h): 9.74 ± 2.44 % ID/g
% ID/g (4 h) Tumor ([2]; Tumor, 4 h): 20.7 ± 2.21 % ID/g
% ID/g (24 h) Tumor ([2]; Tumor, 24 h): 17.4 ± 4.53 % ID/g
% ID/g (72 h) Tumor ([2]; Tumor, 72 h): 10.02 ± 6.15 % ID/g
% ID/g (120 h) Tumor ([2]; Tumor, 120 h): 6.61 ± 1.12 % ID/g
clearance from other organs or tissues (SPECT/CT) [3]: rapid clearance
retention in tumors (SPECT/CT) [3]: sustained retention in tumors
SMILES: COc1cccc(OC)c1-c1cc(C(=O)NC2(C(=O)O)C3CC4CC(C3)CC2C4)nn1-c1ccc(NC(=O)CCCN(C)CCCN(C)C(=O)CN2CCN(CC(=O)[O-])CCN(CC(=O)[O-])CCN(CC(=O)[O-])CC2)cc1C(C)C.[177Lu+3] (stereo not drawn) [^177Lu-I-5]

SMILES: COc1cccc(OC)c1-c1cc(C(=O)NC2(C(=O)O)C3CC4CC(C3)CC2C4)nn1-c1ccc(NC(=O)CCCN(C)CCCN(C)C(=O)CN2CCN(CC(=O)[O-])CCN(CC(=O)[O-])CCN(CC(=O)[O-])CC2)cc1C(C)C.[225Ac+3] (stereo not drawn) [^225Ac—I-5]
tumor inhibition compared to the vehicle group ([4]; single dose of 18, 37 or 74 KBq): significant tumor inhibition
dose sufficient to achieve the maximal effect ([4]; single dose): 37 KBq
